In patent US11452724B2, “Methods for treating amyotrophic lateral sclerosis” (The Regents of the University of Michigan, priority 2018, dated 2022):
Where two headings read alike, the source gives them in different places.

Tests used:
NK92 NK cell line [1] = experiment: Cytokine gene expression by qPCR in IL-15 stimulated NK92 cells; type: cell-based; settings: 30 ng/ml IL-15, tofacitinib treatment (Overnight IL-15) or pre-treatment (2 Hr IL-15)
Description: (§1) FIG. 3A-E: Tofacitinib reduces NK cell activity and cytotoxicity. (A) NK cells (NK92 cell line) were treated with tofacitinib either after 30 ng/ml of IL-15 activation overnight (ON) or before IL-15 activation (2-hours) to test its efficacy in inhibiting already activated NK cells (overnight stimulation) or preventing their activation (2-hour stimulation). (B) NK cells cultured Overnight or 2 Hrs with IL-15 were lysed and cytokine expression assessed using qPCR. IL-10, TNF-α, and IFN-γ gene expression was assessed. (C) Intracellular granzyme B and perforin were levels were assessed in NK cells in vitro using flow cytometry. […] (D) NK cell migration was assessed using a transwell assay. […] A chemoattractant (serum or CCL13) was placed on the other side of the transwell and after 3 hours the fluorescent intensity in the chemoattractant half of the well was assessed. (E) NK cytotoxicity was measured using a K562 co-culture assay. […] Cells were then stained with a viability dye and analyzed using flow cytometry. […]
To test this possibility, experiments were conducted that utilized the well-characterized NK92 NK cell line to assess tofacitinib's impact on NK cell activation and cytotoxicity in vitro. […] First, NK cells from these two conditions were collected, lysed, and cytokine expression gene expression was assessed using qPCR (FIG. 3B).

NK92 NK cell line [2] = experiment: Intracellular granzyme B and perforin levels in NK cells by flow cytometry; type: cell-based
Description: FIG. 3A-E: Tofacitinib reduces NK cell activity and cytotoxicity. (A) NK cells (NK92 cell line) were treated with tofacitinib either after 30 ng/ml of IL-15 activation overnight (ON) or before IL-15 activation (2-hours) to test its efficacy in inhibiting already activated NK cells (overnight stimulation) or preventing their activation (2-hour stimulation). (B) NK cells cultured Overnight or 2 Hrs with IL-15 were lysed and cytokine expression assessed using qPCR. IL-10, TNF-α, and IFN-γ gene expression was assessed. (C) Intracellular granzyme B and perforin were levels were assessed in NK cells in vitro using flow cytometry. Fluorescent intensity was plotted for unstimulated NK cells in serum free conditions (negative control; blue), serum-stimulated NK cells (positive control; red), IL-15 stimulated NK cells (30 ng/ml IL-15; orange), or tofacitinib treated NK cells (30 ng/ml IL-15+ tofacitinib; green). (D) NK cell migration was assessed using a transwell assay. NK92 cells were fluorescently labeled and placed on one side of a well separated by a porous membrane. A chemoattractant (serum or CCL13) was placed on the other side of the transwell and after 3 hours the fluorescent intensity in the chemoattractant half of the well was assessed. (E) NK cytotoxicity was measured using a K562 co-culture assay. […] Cells were then stained with a viability dye and analyzed using flow cytometry. […]

NK92 NK cells = experiment: NK cell migration transwell assay; type: cell-based; settings: IL-15 stimulated NK92 cells, 3 hours
Description: as §1
(§2) Experiments were conducted to assess the impact on NK cell migration following tofacitinib treatment (FIG. 3D). […] NK cell chemoattractants (serum or CCL13) were then placed in the other half of the well and the number of NK cells which traversed the membrane were measured. […] Cells were collected, stained with a viability dye, and analyzed using flow cytometry. […]

[3] = system: NK92 NK cells co-cultured with K562 cancer cells; experiment: NK cytotoxicity K562 co-culture assay; type: cell-based; settings: 4:1 NK:K562 ratio overnight; even following overnight IL-15 stimulation
Description: as §1, §2

peripheral NK cells [4] = settings: mice; Shimaoka et al. 2017; cited from earlier work
peripheral NK cells [5] = settings: human patients; van Vollenhoven et al. 2019, van Gurp et al. 2008; cited from earlier work
NK cells, CD4 T cells = settings: cited from earlier work

## C[C@@H]1CCN(C(=O)CC#N)C[C@@H]1N(C)c1ncnc2[nH]ccc12 [tofacitinib]
NK92 NK cell line [1]
  IFN-γ gene expression: significantly reduced
  IL-10 gene expression: significantly reduced
NK92 NK cell line [2]; NK cells stimulated with IL-15, particularly when treated with tofacitinib prior to IL-15 stimulation
  intracellular perforin levels: reduced
NK92 NK cell line [2]; NK cells stimulated with IL-15 overnight or for two hours, flow cytometry
  intracellular granzyme B levels: modest effect
NK92 NK cells; CCL13 as chemoattractant
  NK cell migration in response to CCL13: more robust suppression
NK92 NK cells; serum as chemoattractant
  NK cell migration in response to serum: modest reduction
[3]
  NK cell-mediated killing (K562 survival): ameliorated
Peripheral NK cells [4]
  peripheral NK cells: capable of reducing
Peripheral NK cells [5]
  peripheral NK cells: capable of reducing
NK cells, CD4 T cells; Hodge et al. 2016, van Gurp et al. 2008
  NK cell levels: reduced in a dose dependent manner
NK cells, CD4 T cells; van Gurp et al. 2008
  CD4 T cell levels: maintaining
